IC50 and selectivity ratio data for eleven molecules are collected here from ChEMBL document CHEMBL4411344, “Synthesis and biological evaluation of new long-chain squaramides as anti-chagasic agents in the BALB/c mouse model” (Bioorg Med Chem, 2019).

The subject of series [1] is Trypanosoma cruzi. As to the kind of experiment: Trypanocidal activity against Trypanosoma cruzi TINF/CH/1956/Tulahuen DTU 6 epimastigotes after 72 hrs by resazurin dye based assay. It is filed as functional, organism-based. The conditions noted are these: TINF/CH/1956/Tulahuen DTU 6, 72 h.
Series [2] is described as follows: Selectivity index, ratio of IC50 for African green monkey Vero cells to IC50 for Trypanosoma cruzi MHOM/Pe/2011/Arequipa DTU 5 epimastigotes. The conditions noted are these: read-out: Ratio IC50. It is filed as toxicity.
A short description of series [3]: Selectivity index, ratio of IC50 for African green monkey Vero cells to IC50 for Trypanosoma cruzi TINF/CH/1956/Tulahuen DTU 6 epimastigotes. The format is toxicity. The conditions noted are these: read-out: Ratio IC50.
The nature of series [4]: Selectivity index, ratio of IC50 for African green monkey Vero cells to IC50 for Trypanosoma cruzi IRHOD/CO/2008/SN3 DTU 1 epimastigotes. It is filed as toxicity. The conditions noted are these: read-out: Ratio IC50.
Series [5] deals with Trypanosoma cruzi. As to the kind of experiment: Trypanocidal activity against Trypanosoma cruzi IRHOD/CO/2008/SN3 DTU 1 epimastigotes after 72 hrs by resazurin dye based assay. The format is functional, organism-based. The conditions noted are these: IRHOD/CO/2008/SN3 DTU 1, 72 h. (Resazurin is reduced to fluorescent resorufin, in cell work by metabolically active cells.)
The test system of the next series is Vero. As to the kind of experiment: Cytotoxicity against African green monkey Vero cells assessed as reduction in cell viability after 72 hrs by resazurin dye based assay. The conditions noted are these: Chlorocebus sabaeus.
Series [6] has as its system Trypanosoma cruzi. As to the kind of experiment: Trypanocidal activity against Trypanosoma cruzi MHOM/Pe/2011/Arequipa DTU 5 epimastigotes after 72 hrs by resazurin dye based assay. It is filed as functional, organism-based. The conditions noted are these: MHOM/Pe/2011/Arequipa DTU 5, 72 h.
In series [7] the test system is Trypanosoma cruzi. As to the kind of experiment: Trypanocidal activity against Trypanosoma cruzi MHOM/Pe/2011/Arequipa DTU 5 amastigotes infected in African green monkey Vero cells after 72 hrs by Giemsa-staining based microscopic assay. The format is functional, organism-based. The conditions noted are these: MHOM/Pe/2011/Arequipa DTU 5, Vero.
Series [8] deals with Trypanosoma cruzi. Put plainly: Trypanocidal activity against Trypanosoma cruzi MHOM/Pe/2011/Arequipa DTU 5 trypomastigotes derived from infected Balb/c mouse after 72 hrs by resazurin dye based assay. The format is functional, organism-based. The conditions noted are these: MHOM/Pe/2011/Arequipa DTU 5, 72 h.
The subject of series [9] is Trypanosoma cruzi. As to the kind of experiment: Trypanocidal activity against Trypanosoma cruzi TINF/CH/1956/Tulahuen DTU 6 trypomastigotes derived from infected Balb/c mouse after 72 hrs by resazurin dye based assay. The conditions noted are these: TINF/CH/1956/Tulahuen DTU 6, 72 h. It is filed as functional, organism-based.
A short description of series [10]: Selectivity index, ratio of IC50 for African green monkey Vero cells to IC50 for Trypanosoma cruzi MHOM/Pe/2011/Arequipa DTU 5 amastigotes infected in African green monkey Vero cells. The format is toxicity. The conditions noted are these: read-out: Ratio IC50.
A short description of series [11]: Selectivity index, ratio of IC50 for African green monkey Vero cells to IC50 for Trypanosoma cruzi IRHOD/CO/2008/SN3 DTU 1 trypomastigotes derived from infected Balb/c mouse. The conditions noted are these: read-out: Ratio IC50. It is filed as toxicity.
Series [12] relates to Trypanosoma cruzi. Put plainly: Trypanocidal activity against Trypanosoma cruzi IRHOD/CO/2008/SN3 DTU 1 trypomastigotes derived from infected Balb/c mouse after 72 hrs by resazurin dye based assay. It is filed as functional, organism-based. The conditions noted are these: IRHOD/CO/2008/SN3 DTU 1, 72 h.
Series [13] can be described thus: Selectivity index, ratio of IC50 for African green monkey Vero cells to IC50 for Trypanosoma cruzi TINF/CH/1956/Tulahuen DTU 6 trypomastigotes derived from infected Balb/c mouse. The conditions noted are these: read-out: Ratio IC50. It is filed as toxicity.
Series [14] is described as follows: Selectivity index, ratio of IC50 for African green monkey Vero cells to IC50 for Trypanosoma cruzi IRHOD/CO/2008/SN3 DTU 1 amastigotes infected in African green monkey Vero cells. It is filed as toxicity. The conditions noted are these: read-out: Ratio IC50.
For series [15], the system named is Trypanosoma cruzi. Put plainly: Trypanocidal activity against Trypanosoma cruzi TINF/CH/1956/Tulahuen DTU 6 amastigotes infected in African green monkey Vero cells after 72 hrs by Giemsa-staining based microscopic assay. It is filed as functional, organism-based. The conditions noted are these: TINF/CH/1956/Tulahuen DTU 6, Vero.
The test system of series [16] is Trypanosoma cruzi. Put plainly: Trypanocidal activity against Trypanosoma cruzi IRHOD/CO/2008/SN3 DTU 1 amastigotes infected in African green monkey Vero cells after 72 hrs by Giemsa-staining based microscopic assay. It is filed as functional, organism-based. The conditions noted are these: IRHOD/CO/2008/SN3 DTU 1, Vero.
Series [17] is described as follows: Selectivity index, ratio of IC50 for African green monkey Vero cells to IC50 for Trypanosoma cruzi MHOM/Pe/2011/Arequipa DTU 5 trypomastigotes derived from infected Balb/c mouse. The format is toxicity. The conditions noted are these: read-out: Ratio IC50.
The nature of series [18]: Selectivity index, ratio of IC50 for African green monkey Vero cells to IC50 for Trypanosoma cruzi TINF/CH/1956/Tulahuen DTU 6 amastigotes infected in African green monkey Vero cells. The conditions noted are these: read-out: Ratio IC50. The format is toxicity.

Usually IC50 stands for the midpoint of a concentration-inhibition curve. For the molecule `CCCCCCCCNc1c(N(C)CCCN(C)C)c(=O)c1=O`, the IC50 turned out to be 82 µM in the series on Trypanosoma cruzi [1], 87.8 µM in the series on Trypanosoma cruzi [5], 1150 µM in the series on Vero and 102 µM in the series on Trypanosoma cruzi [6]. Besides, the values for the selectivity ratio in series [2], in [3] and in series [4] were 11.4, 14.2 and 13.2, respectively.
Regarding `CCCCCCCCCCCCNc1c(N(C)CCCN(C)C)c(=O)c1=O`, the IC50 in the series on Trypanosoma cruzi [1] stood at 49.5 µM; with Trypanosoma cruzi [5], 37.5 µM; in the series with Vero, 128 µM; in the series on Trypanosoma cruzi [6], 64.6 µM. The figures for the selectivity ratio in [2], in series [3] and in [4] were 2, 2.6 and 3.4, respectively.
Consider `CCNc1c(N(C)CCCN(C)C)c(=O)c1=O`, for which the half-inhibitory concentration (IC50) in the series on Trypanosoma cruzi [7] worked out at 27.8 µM; with Trypanosoma cruzi [8], 29.1 µM; with Trypanosoma cruzi [9] it was 26.6 µM; in the series on Trypanosoma cruzi [1], 27.8 µM; in the series with Trypanosoma cruzi [12], 28 µM; in the series with Trypanosoma cruzi [5], 41 µM. Also, the IC50 in the series on Vero stood at 900 µM; in the series on Trypanosoma cruzi [6], 41.3 µM; with Trypanosoma cruzi [15], 31.6 µM; in the series with Trypanosoma cruzi [16], 54.5 µM. Besides, the selectivity ratio is 32.3 in series [10]; 32.1 in series [11]; 33.8 in series [13]; 21.8 in [2]; 32.4 in series [3]; 16.5 in series [14]. Besides, the selectivity ratio in [4] amounted to 22; in series [17] it was 30.9; in series [18], 28.5.
For the molecule `CCCCCCCCCCCC[N+](C)(C)CCCN(C)c1c(O)c(=O)c1=O`, the concentration for half-maximal inhibition (IC50) with Trypanosoma cruzi [1] is 66.1 µM; in the series with Trypanosoma cruzi [5], 33.1 µM; in the series on Vero, 160 µM; in the series on Trypanosoma cruzi [6] it was 22.1 µM. For the same molecule, the selectivity ratio in series [2] came to 7.2; in series [3], 2.4; in series [4] it was 4.8.
Turning to `CN(C)CCCN(C)c1c(N(C)CCCN(C)C)c(=O)c1=O`, the 50% inhibitory concentration (IC50) with Trypanosoma cruzi [1] amounted to 360 µM; with Trypanosoma cruzi [5], 404 µM; with Vero, 1140 µM; in the series with Trypanosoma cruzi [6], 107 µM. Further, the values for the selectivity ratio in [2], in [3] and in [4] were 10.6, 3.2 and 2.8, respectively.
`CN(C)CCCN(C)c1c(N)c(=O)c1=O`: the IC50 in the series on Trypanosoma cruzi [7] came out at 39.6 µM; with Trypanosoma cruzi [8], 33.2 µM; in the series on Trypanosoma cruzi [9], 33.6 µM; with Trypanosoma cruzi [1], 42.6 µM; with Trypanosoma cruzi [12], 30.2 µM; in the series with Trypanosoma cruzi [5], 33.7 µM. Moreover, the IC50 with Vero was found to be 1070 µM; in the series on Trypanosoma cruzi [6], 42.3 µM; in the series with Trypanosoma cruzi [15], 51.3 µM; in the series with Trypanosoma cruzi [16], 62.6 µM. In addition, the selectivity ratio is 27 in series [10]; 35.4 in series [11]; 31.8 in series [13]; 25.3 in [2]; 25.1 in [3]; 17.1 in series [14]. Moreover, the figures for the selectivity ratio in series [4], in series [17] and in [18] were 31.8, 32.2 and 20.8, respectively.
For the molecule `CCCCCCCCCCCCCCCCOP(=O)([O-])OCC[N+](C)(C)C` [MILTEFOSINE], the IC50 worked out at 29.6 µM in the series with Trypanosoma cruzi [7]; 18.8 µM in the series on Trypanosoma cruzi [8]; 20.1 µM in the series on Trypanosoma cruzi [9]; 22.9 µM in the series on Trypanosoma cruzi [1]; 34.8 µM with Trypanosoma cruzi [12]; 55.9 µM with Trypanosoma cruzi [5]. Also, the IC50 in the series with Vero amounted to 21.6 µM; with Trypanosoma cruzi [6], 20.8 µM; with Trypanosoma cruzi [15], 31.8 µM; in the series with Trypanosoma cruzi [16] it was 39.7 µM. The selectivity ratio came out at 0.7 in series [10]; 0.6 in series [11]; 1.1 in series [13]; 1 in [2]; 0.9 in series [3]; 0.5 in [14]. In addition, the selectivity ratio in series [4] turned out to be 0.4; in series [17], 1.2; in series [18], 0.7.
With `CN(C)CCCN(C)c1c(NCCCN(C)CCCNc2c(N(C)CCCN(C)C)c(=O)c2=O)c(=O)c1=O`, the IC50 was found to be 241 µM with Trypanosoma cruzi [1], 311 µM with Trypanosoma cruzi [5], 2170 µM with Vero and 177 µM in the series with Trypanosoma cruzi [6]. The selectivity ratio in series [2] stood at 12.2; in [3], 9; in series [4], 7.
As for `CCCCCCCCCCCC[N+](C)(C)CCCN(C)c1c(OCC)c(=O)c1=O`, the IC50 with Trypanosoma cruzi [1] is 89.1 µM; in the series with Trypanosoma cruzi [5], 74.5 µM; in the series with Vero, 353 µM; with Trypanosoma cruzi [6] it was 63.3 µM. Further, the selectivity ratio amounted to 5.6 in series [2], 4 in series [3] and 4.7 in series [4].
For `CCCCNc1c(N(C)CCCN(C)C)c(=O)c1=O`, the IC50 is 14.7 µM with Trypanosoma cruzi [7]; 10.4 µM with Trypanosoma cruzi [8]; 8.9 µM in the series with Trypanosoma cruzi [9]; 9.1 µM in the series with Trypanosoma cruzi [1]; 7.5 µM in the series with Trypanosoma cruzi [12]; 15.2 µM in the series on Trypanosoma cruzi [5]. The IC50 in the series on Vero amounted to 439 µM; in the series on Trypanosoma cruzi [6], 12.4 µM; in the series with Trypanosoma cruzi [15] it was 11.7 µM; with Trypanosoma cruzi [16], 13.1 µM. Moreover, the selectivity ratio in series [10] stood at 29.9; in series [11], 58.6; in series [13] it was 49.3; in [2], 35.4; in series [3] it was 48.3; in series [14] it was 33.5. For the same molecule, the selectivity ratio was found to be 28.9 in series [4], 42.2 in series [17] and 37.5 in series [18].
`CCCCCCCCCCCCOc1c(N(C)CCCN(C)C)c(=O)c1=O`: the IC50 came out at 19.1 µM with Trypanosoma cruzi [9]; 14.6 µM with Trypanosoma cruzi [1]; 24.1 µM with Trypanosoma cruzi [12]; 19.4 µM with Trypanosoma cruzi [5]; 291 µM with Vero; 36.2 µM in the series on Trypanosoma cruzi [6]. Also, the results for the IC50 in the series with Trypanosoma cruzi [15] and with Trypanosoma cruzi [16] were 25.5 µM and 28.4 µM, respectively. For the same molecule, the selectivity ratio amounted to 12.1 in [11]; 15.3 in series [13]; 8 in series [2]; 19.9 in [3]; 10.3 in [14]; 15 in series [4]. The selectivity ratio in series [18] was 11.4.
